# According to PubChem BioAssay (NCI):
#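 How tested: cells in 96-well plates exposed to compound for 48 hours at five concentrations. GI50 = concentration required for 50% inhibition of growth. TGI is the concentration that stops growth completely.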
# Experiments:
# Test in all cases: NCI tumour cell line growth inhibition, 48 h
# SK-MEL-28 melanoma = system: SK-MEL-28 melanoma
# P388/ADR leukemia = system: P388/ADR leukemia
# SN12K1 renal = system: SN12K1 renal
# LOX IMVI melanoma = system: LOX IMVI melanoma
# U251 CNS = system: U251 CNS
# DMS 114 small cell lung = system: DMS 114 small cell lung
# HOP-18 NSCLC = system: HOP-18 NSCLC
# COLO 205 colon = system: COLO 205 colon
# MOLT-4 leukemia = system: MOLT-4 leukemia
# OVCAR-4 ovarian = system: OVCAR-4 ovarian
# SW-620 colon = system: SW-620 colon
# SK-MEL-2 melanoma = system: SK-MEL-2 melanoma
# UO-31 renal = system: UO-31 renal
# CAKI-1 renal = system: CAKI-1 renal
# SN12C renal = system: SN12C renal
# EKVX NSCLC = system: EKVX NSCLC
# HL-60(TB) leukemia = system: HL-60(TB) leukemia
# SF-539 CNS = system: SF-539 CNS
# A549 NSCLC = system: A549 NSCLC
# KM12 colon = system: KM12 colon
# RPMI-8226 leukemia = system: RPMI-8226 leukemia
# CCRF-CEM leukemia = system: CCRF-CEM leukemia
# NCI/ADR-RES ovarian = system: NCI/ADR-RES ovarian
# DMS 273 small cell lung = system: DMS 273 small cell lung
# KM20L2 colon = system: KM20L2 colon
# UACC-62 melanoma = system: UACC-62 melanoma
# K-562 leukemia = system: K-562 leukemia
# DLD-1 colon = system: DLD-1 colon
# UACC-257 melanoma = system: UACC-257 melanoma
# SK-OV-3 ovarian = system: SK-OV-3 ovarian
# IGROV1 ovarian = system: IGROV1 ovarian
# SNB-19 CNS = system: SNB-19 CNS
# MCF7 breast = system: MCF7 breast
# SK-MEL-5 melanoma = system: SK-MEL-5 melanoma
# MALME-3M melanoma = system: MALME-3M melanoma
# HCT-15 colon = system: HCT-15 colon
# SNB-78 CNS = system: SNB-78 CNS
# HCT-116 colon = system: HCT-116 colon
# HCC-2998 colon = system: HCC-2998 colon
# HOP-62 NSCLC = system: HOP-62 NSCLC
# HOP-92 NSCLC = system: HOP-92 NSCLC
# OVCAR-3 ovarian = system: OVCAR-3 ovarian
# RXF 393 renal = system: RXF 393 renal
# P388 leukemia = system: P388 leukemia
# NCI-H226 lung = system: NCI-H226 lung
# SF-295 CNS = system: SF-295 CNS
# NCI-H460 lung = system: NCI-H460 lung
# OVCAR-8 ovarian = system: OVCAR-8 ovarian
# OVCAR-5 ovarian = system: OVCAR-5 ovarian
# M19-MEL melanoma = system: M19-MEL melanoma
# A498 renal = system: A498 renal
# SF-268 CNS = system: SF-268 CNS
# HT29 colon = system: HT29 colon
# NCI-H522 lung = system: NCI-H522 lung
# SNB-75 CNS = system: SNB-75 CNS
# NCI-H23 lung = system: NCI-H23 lung
smiles,measurement,setting,value
Cc1ncc(CO)c(C=NCCCCCCN=Cc2c(CO)cnc(C)c2[O-])c1[O-].[Cu+2],TGI,SK-MEL-28 melanoma,> 100 µM
same,GI50,P388/ADR leukemia,25.7 µM
same,TGI,P388/ADR leukemia,> 100 µM
same,GI50,SN12K1 renal,> 100 µM
same,TGI,SN12K1 renal,> 100 µM
same,TGI,LOX IMVI melanoma,> 94.3 µM
same,TGI,U251 CNS,> 70.9 µM
same,GI50,DMS 114 small cell lung,> 47.7 µM
same,TGI,DMS 114 small cell lung,> 77.6 µM
same,GI50,HOP-18 NSCLC,> 100 µM
same,TGI,HOP-18 NSCLC,> 100 µM
same,TGI,COLO 205 colon,> 100 µM
same,TGI,MOLT-4 leukemia,> 100 µM
same,TGI,OVCAR-4 ovarian,> 100 µM
same,TGI,SW-620 colon,> 100 µM
same,TGI,SK-MEL-2 melanoma,> 100 µM
same,TGI,UO-31 renal,> 100 µM
same,TGI,CAKI-1 renal,> 100 µM
same,TGI,SN12C renal,> 100 µM
same,TGI,EKVX NSCLC,> 100 µM
same,TGI,HL-60(TB) leukemia,> 100 µM
same,TGI,SF-539 CNS,> 100 µM
same,TGI,A549 NSCLC,> 100 µM
same,TGI,KM12 colon,> 100 µM
same,TGI,RPMI-8226 leukemia,> 100 µM
same,TGI,CCRF-CEM leukemia,> 31.6 µM
same,TGI,NCI/ADR-RES ovarian,> 100 µM
same,GI50,DMS 273 small cell lung,> 66.9 µM
same,TGI,DMS 273 small cell lung,> 100 µM
same,GI50,KM20L2 colon,> 83.9 µM
same,TGI,KM20L2 colon,> 100 µM
same,TGI,UACC-62 melanoma,> 100 µM
same,TGI,K-562 leukemia,> 100 µM
same,GI50,DLD-1 colon,> 82.9 µM
same,TGI,DLD-1 colon,> 100 µM
same,TGI,UACC-257 melanoma,> 100 µM
same,TGI,SK-OV-3 ovarian,> 100 µM
same,TGI,IGROV1 ovarian,> 100 µM
same,TGI,SNB-19 CNS,> 100 µM
same,TGI,MCF7 breast,> 100 µM
same,TGI,SK-MEL-5 melanoma,> 79.1 µM
same,TGI,MALME-3M melanoma,> 100 µM
same,TGI,HCT-15 colon,> 100 µM
same,GI50,SNB-78 CNS,41.3 µM
same,TGI,SNB-78 CNS,> 100 µM
same,TGI,HCT-116 colon,> 100 µM
same,TGI,HCC-2998 colon,> 100 µM
same,TGI,HOP-62 NSCLC,> 100 µM
same,TGI,HOP-92 NSCLC,> 87.9 µM
same,TGI,OVCAR-3 ovarian,> 100 µM
same,TGI,RXF 393 renal,> 100 µM
same,GI50,P388 leukemia,18.9 µM
same,TGI,P388 leukemia,94.2 µM
same,TGI,NCI-H226 lung,> 100 µM
same,TGI,SF-295 CNS,> 100 µM
same,TGI,NCI-H460 lung,> 100 µM
same,TGI,OVCAR-8 ovarian,> 100 µM
same,TGI,OVCAR-5 ovarian,> 100 µM
same,GI50,M19-MEL melanoma,28.6 µM
same,TGI,M19-MEL melanoma,> 31.6 µM
same,TGI,A498 renal,> 100 µM
same,TGI,SF-268 CNS,> 100 µM
same,TGI,HT29 colon,> 100 µM
same,TGI,NCI-H522 lung,> 100 µM
same,TGI,SNB-75 CNS,> 100 µM
same,TGI,NCI-H23 lung,> 100 µM
